# According to ChEMBL document CHEMBL5465560, “Selectivity Literature for EUbOPEN Chemogenomic Library” (2024):
# What was measured:
# [1] = target: T1, Muscle, skeletal receptor tyrosine-protein kinase (Homo sapiens) (UniProt O15146); test: Selectivity interaction (KinomeScan (DiscoverX)) EUB0000045b MUSK
# T1 sequence (whole entry): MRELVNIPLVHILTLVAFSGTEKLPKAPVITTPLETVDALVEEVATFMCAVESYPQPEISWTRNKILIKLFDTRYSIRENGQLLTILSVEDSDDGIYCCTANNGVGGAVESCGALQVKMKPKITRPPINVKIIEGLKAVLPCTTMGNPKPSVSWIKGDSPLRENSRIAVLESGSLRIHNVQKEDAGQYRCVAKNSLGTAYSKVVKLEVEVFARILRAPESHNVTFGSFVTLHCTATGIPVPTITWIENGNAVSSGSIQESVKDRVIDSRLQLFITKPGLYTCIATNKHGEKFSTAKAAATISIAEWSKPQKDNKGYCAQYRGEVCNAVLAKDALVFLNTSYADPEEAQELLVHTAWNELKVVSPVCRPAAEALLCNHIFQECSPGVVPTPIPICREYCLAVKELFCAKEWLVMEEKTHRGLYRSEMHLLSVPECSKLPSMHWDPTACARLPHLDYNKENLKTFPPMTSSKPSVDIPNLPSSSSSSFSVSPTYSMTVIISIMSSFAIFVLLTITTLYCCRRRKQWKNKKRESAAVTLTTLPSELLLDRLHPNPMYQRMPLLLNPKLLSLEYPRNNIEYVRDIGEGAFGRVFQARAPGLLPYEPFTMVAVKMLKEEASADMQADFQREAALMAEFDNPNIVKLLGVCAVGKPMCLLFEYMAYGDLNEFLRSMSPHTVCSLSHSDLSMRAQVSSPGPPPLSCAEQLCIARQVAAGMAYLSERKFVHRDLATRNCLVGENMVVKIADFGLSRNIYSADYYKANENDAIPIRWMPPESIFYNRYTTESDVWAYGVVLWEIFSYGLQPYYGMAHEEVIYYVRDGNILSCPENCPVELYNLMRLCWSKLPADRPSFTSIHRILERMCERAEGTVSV
# [2] = target: Serine/threonine-protein kinase 10 (Homo sapiens) (UniProt O94804); test: Selectivity interaction (KinomeScan (DiscoverX)) EUB0001049a STK10; settings: at 1 µM
# [3] = target: Protein kinase C alpha type (Homo sapiens, UniProt P17252); test: Selectivity interaction (Upstate Kinase Profiler service (Millipore)) EUB0000056c PRKCA; settings: at 1 µM
# [4] = target: 5-hydroxytryptamine receptor 2B (Homo sapiens, UniProt P41595); test: Selectivity interaction (Serotonin 5HT2B Calcium flux assay, agonist mode ) EUB0000877a HTR2B
# [5] = target: 5'-AMP-activated protein kinase catalytic subunit alpha-1 (Homo sapiens, UniProt Q13131); test: Selectivity interaction (ActivX KiNativ screen (ex vivo kinase selectivity in human PBMCs)) EUB0001619a PRKAA1; assay type: cell-based; settings: PBMC, at 1 µM
# [6] = target: T2, Phosphatidylinositol 4,5-bisphosphate 3-kinase catalytic subunit delta isoform (Homo sapiens) (UniProt O00329); test: Selectivity interaction (KinomeScan (DiscoverX)) EUB0000618a PIK3CD; settings: at 10 µM
# T2 sequence (whole entry): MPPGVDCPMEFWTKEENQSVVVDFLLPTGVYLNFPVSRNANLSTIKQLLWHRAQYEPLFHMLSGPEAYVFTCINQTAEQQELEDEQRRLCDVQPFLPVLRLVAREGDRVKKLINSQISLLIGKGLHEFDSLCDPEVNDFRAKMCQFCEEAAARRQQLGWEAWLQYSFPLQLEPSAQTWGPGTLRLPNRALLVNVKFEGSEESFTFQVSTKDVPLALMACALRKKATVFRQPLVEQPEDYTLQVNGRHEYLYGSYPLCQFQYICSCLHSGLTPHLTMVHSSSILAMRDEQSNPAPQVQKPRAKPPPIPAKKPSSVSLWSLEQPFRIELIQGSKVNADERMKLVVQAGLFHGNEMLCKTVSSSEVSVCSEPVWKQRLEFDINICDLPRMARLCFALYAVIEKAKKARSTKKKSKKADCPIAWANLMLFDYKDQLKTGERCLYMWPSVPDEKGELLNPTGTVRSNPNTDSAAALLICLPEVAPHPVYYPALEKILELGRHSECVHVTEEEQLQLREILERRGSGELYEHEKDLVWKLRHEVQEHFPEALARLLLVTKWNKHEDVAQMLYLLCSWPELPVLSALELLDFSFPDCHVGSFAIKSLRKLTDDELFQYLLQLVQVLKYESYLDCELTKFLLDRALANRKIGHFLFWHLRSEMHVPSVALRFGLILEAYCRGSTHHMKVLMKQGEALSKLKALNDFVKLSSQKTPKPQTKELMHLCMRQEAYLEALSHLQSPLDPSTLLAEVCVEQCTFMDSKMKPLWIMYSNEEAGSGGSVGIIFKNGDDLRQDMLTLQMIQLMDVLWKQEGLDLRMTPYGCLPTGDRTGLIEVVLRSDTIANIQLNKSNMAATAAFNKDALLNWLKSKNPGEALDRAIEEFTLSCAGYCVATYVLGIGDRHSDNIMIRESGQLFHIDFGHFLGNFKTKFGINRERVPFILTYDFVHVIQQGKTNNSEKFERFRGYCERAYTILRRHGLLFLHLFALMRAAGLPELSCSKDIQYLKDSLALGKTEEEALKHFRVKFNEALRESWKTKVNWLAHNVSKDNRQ
# 5'-AMP-activated protein kinase catalytic subunit alpha-1, sequence (Q13131 whole entry, looked up, canonical isoform): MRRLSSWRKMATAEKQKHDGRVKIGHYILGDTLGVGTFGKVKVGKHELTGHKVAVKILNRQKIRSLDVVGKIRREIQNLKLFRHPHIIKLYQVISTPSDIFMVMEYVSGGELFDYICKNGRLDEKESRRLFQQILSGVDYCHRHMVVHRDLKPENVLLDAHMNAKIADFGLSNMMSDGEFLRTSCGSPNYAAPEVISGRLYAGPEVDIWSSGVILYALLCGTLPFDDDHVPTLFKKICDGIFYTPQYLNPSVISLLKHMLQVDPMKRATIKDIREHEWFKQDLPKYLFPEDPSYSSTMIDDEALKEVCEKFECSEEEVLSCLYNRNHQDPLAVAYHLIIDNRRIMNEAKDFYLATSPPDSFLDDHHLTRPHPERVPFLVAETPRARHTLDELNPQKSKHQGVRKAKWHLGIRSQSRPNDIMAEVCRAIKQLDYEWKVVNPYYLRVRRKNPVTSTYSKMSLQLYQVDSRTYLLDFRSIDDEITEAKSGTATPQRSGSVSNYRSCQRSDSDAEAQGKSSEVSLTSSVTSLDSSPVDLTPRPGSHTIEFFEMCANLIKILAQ
# 5-hydroxytryptamine receptor 2B, sequence (P41595 whole entry): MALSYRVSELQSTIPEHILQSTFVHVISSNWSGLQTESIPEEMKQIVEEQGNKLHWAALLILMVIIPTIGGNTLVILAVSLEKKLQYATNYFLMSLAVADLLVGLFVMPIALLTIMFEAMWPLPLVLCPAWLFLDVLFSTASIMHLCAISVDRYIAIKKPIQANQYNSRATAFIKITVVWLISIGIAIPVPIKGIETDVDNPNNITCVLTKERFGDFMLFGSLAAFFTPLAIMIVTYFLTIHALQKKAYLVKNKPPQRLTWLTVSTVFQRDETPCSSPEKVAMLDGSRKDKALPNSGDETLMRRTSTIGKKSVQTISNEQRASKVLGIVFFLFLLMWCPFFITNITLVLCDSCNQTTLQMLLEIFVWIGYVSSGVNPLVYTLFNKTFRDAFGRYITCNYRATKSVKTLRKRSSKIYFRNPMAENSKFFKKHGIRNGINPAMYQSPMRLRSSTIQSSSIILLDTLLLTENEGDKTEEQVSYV
# Serine/threonine-protein kinase 10 (Homo sapiens), sequence (O94804 whole entry, looked up): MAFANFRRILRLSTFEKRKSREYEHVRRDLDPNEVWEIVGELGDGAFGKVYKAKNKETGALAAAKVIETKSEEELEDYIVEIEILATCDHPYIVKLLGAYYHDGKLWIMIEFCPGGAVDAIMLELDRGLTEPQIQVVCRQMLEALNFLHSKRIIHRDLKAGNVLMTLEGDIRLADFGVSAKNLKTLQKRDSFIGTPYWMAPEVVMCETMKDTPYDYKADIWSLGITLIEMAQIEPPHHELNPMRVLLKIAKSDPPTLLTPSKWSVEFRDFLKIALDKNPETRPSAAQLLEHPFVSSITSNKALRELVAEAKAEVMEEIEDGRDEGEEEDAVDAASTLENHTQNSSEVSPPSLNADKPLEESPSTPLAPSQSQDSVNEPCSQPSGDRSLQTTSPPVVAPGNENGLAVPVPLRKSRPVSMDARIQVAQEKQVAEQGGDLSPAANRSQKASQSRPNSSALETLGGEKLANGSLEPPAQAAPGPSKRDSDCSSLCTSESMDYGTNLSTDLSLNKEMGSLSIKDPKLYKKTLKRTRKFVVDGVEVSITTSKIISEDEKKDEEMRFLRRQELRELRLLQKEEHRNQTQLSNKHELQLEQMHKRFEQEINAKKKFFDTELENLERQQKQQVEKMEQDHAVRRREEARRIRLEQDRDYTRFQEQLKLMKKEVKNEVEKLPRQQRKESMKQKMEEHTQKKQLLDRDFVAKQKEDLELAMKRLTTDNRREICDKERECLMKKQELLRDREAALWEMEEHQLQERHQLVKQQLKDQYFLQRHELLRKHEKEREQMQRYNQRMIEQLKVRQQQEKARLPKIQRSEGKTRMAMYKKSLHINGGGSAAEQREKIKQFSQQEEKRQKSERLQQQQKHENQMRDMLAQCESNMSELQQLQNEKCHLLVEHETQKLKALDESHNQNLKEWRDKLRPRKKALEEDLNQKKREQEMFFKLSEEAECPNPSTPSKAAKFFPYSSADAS
structure (smiles),measurement,setting,value
C=CC(=O)Nc1cc(-n2c(=O)ccc3cnc4ccc(-c5ccc(NS(C)(=O)=O)cc5)cc4c32)ccc1C,% of control,[1]; at 1 µM,100%
same,% of control,[1]; at 10 µM,82%
COc1cc(Nc2nc(C)cc(-c3cnn4nc(OC)ccc34)n2)cc(C(F)(F)F)c1,% of control,[2],86%
Cc1ccc(-c2ccc3c(ccc4sc5c(c43)NC[C@@H](C)NC5=O)n2)cn1,% of inhibition,[3],11%
CCC(=O)N1CC[C@H](Nc2ncnc3c2CN(c2cnc(OC)c(C(F)(F)F)c2)CC3)C1 [LENIOLISIB],IC50,[4],> 30 µM
N#Cc1cccc(-c2c[nH]c3ncnc(N4CCOCC4)c23)c1,% of inhibition,[5],33%
O[C@H]1CC[C@H](Nc2ncc3nc(Nc4c(F)cc(F)cc4F)n([C@H]4CCOC4)c3n2)CC1,% of control,[6],96%
